Data as given in the NIST ThermoML archive (doi:10.1016/j.jct.2013.12.029).
± gives the expanded uncertainty stated by the source.

Details: 293 K; 101.33 kPa; Liquid; Vibrating tube method

Structure (SMILES)	mass density [kg/m3]
CCCCCC[N+]1(C)CCCCC1.O=S(=O)([N-]S(=O)(=O)C(F)(F)F)C(F)(F)F	1329.5 ± 1.1

Same assay, conditions: 298.15 K; 101.33 kPa; Liquid; Vibrating tube method

Structure (SMILES)	mass density [kg/m3]
CCCCCCC [heptane]	679.54 ± 1
CC(C)=O [acetone]	785.32 ± 1
CCC[N+]1(C)CCCCC1.O=S(=O)([N-]S(=O)(=O)C(F)(F)F)C(F)(F)F	1409.8 ± 1.1
CCCC[N+]1(C)CCCCC1.O=S(=O)([N-]S(=O)(=O)C(F)(F)F)C(F)(F)F	1379.2 ± 1.1
c1ccsc1 [thiophene]	1058.92 ± 1
c1ccc2sccc2c1 [benzo[b]thiophene]	1427 ± 1
CCCCCC[N+]1(C)CCCCC1.O=S(=O)([N-]S(=O)(=O)C(F)(F)F)C(F)(F)F	1325.4 ± 1.1
CCCO [propan-1-ol]	799.52 ± 1
